Source: patent publication US20250263424A1, “KRAS INHIBITORS” (Bristol-Myers Squibb Company, priority 2022, published 2025)

biological target: Recombinant GMPPNP-loaded KRAS G12C (KRAS-G12C(ON), active form) (Homo sapiens, UniProt P01116, G12C); assay: KRAS G12C RAF Disruption Assay (HTRF); assay type: biochemical; conditions: GMPPNP-loaded KRAS G12C 5 nM, GST-RAF1 RBD 9 nM, values given in μM, read-out: KRASG12C RAF Disruption Assay (IC50)
Protocol: This is a functional assay that measures activity of compounds against […]., the active form of KRAS G12C. Recombinant GMPPNP-loaded KRAS G12C (5 nM) was treated with compound at room temperature for 20 minutes in assay buffer (50 mM Tris pH 7.5, 100 mM NaCl, 1 mM MgCl2, 1 mM DTT, 100 μg/ml BSA). Recombinant GST-RAF1 RBD (9 nM) was added, and the reaction mixture was incubated for 20 minutes. SA-Tb (0.25 nM) was added, and the reaction mixture was incubated for 3 hours. HTRF signal was measured (PerkinElmer Envision), the signal ratio (λem 520/λem 495) was calculated, and IC50 values were calculated from the dose-response curve.

Chain of Recombinant GMPPNP-loaded KRAS G12C (KRAS-G12C(ON), active form) (P01116 1-188 isoform P01116-2 G12C): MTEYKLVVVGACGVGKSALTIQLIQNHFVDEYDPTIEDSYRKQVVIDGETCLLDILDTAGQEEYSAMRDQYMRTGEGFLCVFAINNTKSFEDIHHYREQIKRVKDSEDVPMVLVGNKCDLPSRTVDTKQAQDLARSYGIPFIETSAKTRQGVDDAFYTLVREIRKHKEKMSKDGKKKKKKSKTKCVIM

| IC50 | Compound |
| --- | --- |
| 93 µM | O=C(/C(F)=C/c1nccs1)N1[C@@H]2CC[C@H]1CN(c1nc(OC[C@@]34CCCN3C[C@H](F)C4)nc3c(F)c(-c4cccc5cccc(Cl)c45)ccc13)C2 [Example 10, (Z)-1-((1R,5S)-3-(7-(8-chloronaphthalen-1-yl)-8-fluoro-2-(((2R,7aS)-2-fluorotetrahydro-1H-pyrrolizin-7a(5H)-yl)methoxy)quinazolin-4-yl)-3,8-diazabicyclo[3.2.1]octan-8-yl)-2-fluoro-3-(thiazol-2-yl)prop-2-en-1-one] |
| 5.5 µM | C[C@H]1CN(C(=O)/C(F)=C/c2ccccn2)CCN1c1nc(OC[C@@H]2CCCN2C)nc2c(F)c(-c3cccc4cccc(Cl)c34)c(Cl)cc12 (single isomer, unassigned) [Example 3] |
| 4.9 µM | Cc1cc(N)nc(-c2c(Cl)cc3c(N4CC5CCC4CN5C(=O)/C(F)=C/c4ccccn4)nc(OC[C@@H]4CCCN4C)nc3c2F)c1C(F)(F)F (stereo partly drawn) [Example 6, (Z)-1-(5-((7M)-7-(6-amino-4-methyl-3-(trifluoromethyl)pyridin-2-yl)-6-chloro-8-fluoro-2-(((S)-1-methylpyrrolidin-2-yl)methoxy)quinazolin-4-yl)-2,5-diazabicyclo[2.2.2]octan-2-yl)-2-fluoro-3-(pyridin-2-yl)prop-2-en-1-one] |
| 9.2 µM | Cc1cc(N)nc(-c2c(Cl)cc3c(N4CC5CC(C4)N5C(=O)/C(F)=C/c4nccs4)nc(OC[C@]45CCCN4C[C@H](F)C5)nc3c2F)c1C(F)(F)F [Example 12, (Z)-1-(3-((7M)-7-(6-amino-4-methyl-3-(trifluoromethyl)pyridin-2-yl)-6-chloro-8-fluoro-2-(((2R,7aR)-2-fluorotetrahydro-1H-pyrrolizin-7a(5H)-yl)methoxy)quinazolin-4-yl)-3,6-diazabicyclo[3.1.1]heptan-6-yl)-2-fluoro-3-(thiazol-2-yl)prop-2-en-1-one] |

same assay, conditions: GMPPNP-loaded KRAS G12C 5 nM, GST-RAF1 RBD 9 nM, values in nM, read-out: KRASG12C RAF Disruption Assay (IC50)

| IC50 | Compound |
| --- | --- |
| 0.1 µM | Cc1ccc2[nH]ncc2c1-c1ccc2c(N3CCN(C(=O)/C(F)=C/c4ccccn4)[C@@H](CC#N)C3)nc(OC[C@@H]3CCCN3C)nc2c1F [Example 50, 2-((2S)-1-((Z)-2-fluoro-3-(pyridin-2-yl)acryloyl)-4-(8-fluoro-7-(5-methyl-1H-indazol-4-yl)-2-(((S)-1-methylpyrrolidin-2-yl)methoxy)quinazolin-4-yl)piperazin-2-yl)acetonitrile] |
| 2.1 µM | CN1CCC[C@H]1COc1nc(N2CCN(C(=O)/C(F)=C/c3ccccn3)[C@@H](CC#N)C2)c2ccc(-c3cc(Cl)ccc3OC(F)(F)F)c(F)c2n1 [Example 65, 2-((S)-4-(7-(5-chloro-2-(trifluoromethoxy)phenyl)-8-fluoro-2-(((S)-1-methylpyrrolidin-2-yl)methoxy)quinazolin-4-yl)-1-((Z)-2-fluoro-3-(pyridin-2-yl)acryloyl)piperazin-2-yl)acetonitrile] |
| 2.6 µM | Cc1cc(N)nc(-c2c(Cl)cc3c(N4C[C@]5(NC(=O)/C(F)=C/c6nccs6)CC[C@H]4C5)nc(OC[C@@H]4CCCN4C)nc3c2F)c1C(F)(F)F (atropisomer, axis not shown) [Example 69, (Z)-N-((1S,4S)-2-(7M-(6-amino-4-methyl-3-(trifluoromethyl)pyridin-2-yl)-6-chloro-8-fluoro-2-(((S)-1-methylpyrrolidin-2-yl)methoxy)quinazolin-4-yl)-2-azabicyclo[2.2.1]heptan-4-yl)-2-fluoro-3-(thiazol-2-yl)acrylamide] |
| 0.38 µM | C#Cc1cccc2cccc(-c3ccc4c(N5CCN(C(=O)/C(F)=C/c6nccs6)C[C@@H]5C)nc(OC[C@@]56CCCN5C[C@H](F)C6)nc4c3F)c12 [Example 89, (Z)-1-((S)-4-(7-(8-ethynylnaphthalen-1-yl)-8-fluoro-2-(((2R,7aS)-2-fluorotetrahydro-1H-pyrrolizin-7a(5H)-yl)methoxy)quinazolin-4-yl)-3-methylpiperazin-1-yl)-2-fluoro-3-(thiazol-2-yl)prop-2-en-1-one] |
| 2.8 µM | COc1ccc(Cl)cc1-c1ccc2c(N3CCN(C(=O)/C(F)=C/c4ccccn4)[C@@H](CC#N)C3)nc(OC[C@@H]3CCCN3C)nc2c1F [Example 61, 2-((S)-4-(7-(5-chloro-2-methoxyphenyl)-8-fluoro-2-(((S)-1-methylpyrrolidin-2-yl)methoxy)quinazolin-4-yl)-1-((Z)-2-fluoro-3-(pyridin-2-yl)acryloyl)piperazin-2-yl)acetonitrile] |
| 0.18 µM | CN1CCC[C@H]1COc1nc(N2CCN(C(=O)/C(F)=C/c3nccs3)CC2)c2ccc(-c3cc(O)cc4ccccc34)c(F)c2n1 [Example 29, (S,Z)-2-fluoro-1-(4-(8-fluoro-7-(3-hydroxynaphthalen-1-yl)-2-((1-methylpyrrolidin-2-yl)methoxy)quinazolin-4-yl)piperazin-1-yl)-3-(thiazol-2-yl)prop-2-en-1-one] |
| 0.02 µM | C#Cc1cccc2cccc(-c3ccc4c(N(C)[C@@H]5CCN(C(=O)/C(F)=C/c6ccccn6)C5)nc(OC[C@@]56CCCN5C[C@H](F)C6)nc4c3F)c12 [Example 81, (Z)-1-((R)-3-((7-(8-ethynylnaphthalen-1-yl)-8-fluoro-2-(((2R,7aS)-2-fluorotetrahydro-1H-pyrrolizin-7a(5H)-yl)methoxy)quinazolin-4-yl)(methyl)amino)pyrrolidin-1-yl)-2-fluoro-3-(pyridin-2-yl)prop-2-en-1-one] |
| 0.71 µM | COCCCN1CCC(Oc2nc(N3CCN(C(=O)/C(F)=C/c4ccccn4)[C@@H](CC#N)C3)c3ccc(-c4cccc5cccc(Cl)c45)c(F)c3n2)CC1 [Example 73, (S,Z)-2-(4-(7-(8-chloronaphthalen-1-yl)-8-fluoro-2-((1-(3-methoxypropyl)piperidin-4-yl)oxy)quinazolin-4-yl)-1-(2-fluoro-3-(pyridin-2-yl)acryloyl)piperazin-2-yl)acetonitrile] |
| 9.8 µM | COc1ccc(Cl)cc1-c1ccc2c(N3CCN(C(=O)/C(F)=C/c4ncccn4)[C@@H](CC#N)C3)nc(OC[C@@H]3CCCN3C)nc2c1F [Example 63, 2-((S)-4-(7-(5-chloro-2-methoxyphenyl)-8-fluoro-2-(((S)-1-methylpyrrolidin-2-yl)methoxy)quinazolin-4-yl)-1-((Z)-2-fluoro-3-(pyrimidin-2-yl)acryloyl)piperazin-2-yl)acetonitrile] |
| 0.35 µM | Cc1cc(N)nc(-c2c(Cl)cc3c(N4CCC(CNC(=O)C(F)=Cc5ccccn5)CC4)nc(OCC4CCCN4C)nc3c2F)c1C(F)(F)F [Example 44, (2Z)-N-({1-[(7M)-7-[6-amino-4-methyl-3-(trifluoromethyl)pyridin-2-yl]-6-chloro-8-fluoro-2-{[(2S)-1-methylpyrrolidin-2-yl]methoxy}quinazolin-4-yl]piperidin-4-yl}methyl)-2-fluoro-3-(pyridin-2-yl)prop-2-enamide] |
| 0.048 µM | Cc1cc(N)nc(-c2c(Cl)cc3c(N4C[C@H]5CC[C@@H]4[C@@H]5NC(=O)/C(F)=C/c4ccccn4)nc(OC[C@]45CCCN4C[C@H](F)C5)nc3c2F)c1C(F)(F)F [Example 45, (2Z)-N-[(1R,4R,7R)-2-[(7M)-2-{[(2R,7aR)-2-fluoro-hexahydro-1H-pyrrolizin-7a-yl]methoxy}-7-[6-amino-4-methyl-3-(trifluoromethyl)pyridin-2-yl]-6-chloro-8-fluoroquinazolin-4-yl]-2-azabicyclo[2.2.1]heptan-7-yl]-2-fluoro-3-(pyridin-2-yl)prop-2-enamide] |
| 3.1 µM | COc1ccc(Cl)cc1-c1ccc2c(N3CCN(C(=O)/C(F)=C/c4nccs4)[C@@H](CC#N)C3)nc(OC[C@@H]3CCCN3C)nc2c1F [Example 62, 2-((S)-4-(7-(5-chloro-2-methoxyphenyl)-8-fluoro-2-(((S)-1-methylpyrrolidin-2-yl)methoxy)quinazolin-4-yl)-1-((Z)-2-fluoro-3-(thiazol-2-yl)acryloyl)piperazin-2-yl)acetonitrile] |
| 3.2 µM | CN1CCC[C@H]1COc1nc(N2CCN(C(=O)/C(F)=C/c3nccs3)[C@@H](CC#N)C2)c2ccc(-c3cc(Cl)ccc3OC(F)(F)F)c(F)c2n1 [Example 66, 2-((S)-4-(7-(5-chloro-2-(trifluoromethoxy)phenyl)-8-fluoro-2-(((S)-1-methylpyrrolidin-2-yl)methoxy)quinazolin-4-yl)-1-((Z)-2-fluoro-3-(thiazol-2-yl)acryloyl)piperazin-2-yl)acetonitrile] |
| 0.0064 µM | C#Cc1c(F)ccc2cc(O)cc(-c3ccc4c(N5C[C@H]6CC[C@@H](C5)N6C(=O)/C(F)=C/c5ccccn5)nc(OC[C@]56CCC[C@H]5N(C)CCC6)nc4c3F)c12 [Example 27, (Z)-1-((1R,5S)-3-(7-(8-ethynyl-7-fluoro-3-hydroxynaphthalen-1-yl)-8-fluoro-2-(((4aS,7aR)-1-methyloctahydro-4aH-cyclopenta[b]pyridin-4a-yl)methoxy)quinazolin-4-yl)-3,8-diazabicyclo[3.2.1]octan-8-yl)-2-fluoro-3-(pyridin-2-yl)prop-2-en-1-one] |
| 0.06 µM | N#CC[C@H]1CN(c2nc(OC[C@@]34CCCN3C[C@H](F)C4)nc3c(F)c(-c4cccc5cccc(Cl)c45)ccc23)CCN1C(=O)/C(F)=C/c1nccs1 [Example 75, 2-((S)-4-(7-(8-chloronaphthalen-1-yl)-8-fluoro-2-(((2R,7aS)-2-fluorotetrahydro-1H-pyrrolizin-7a(5H)-yl)methoxy)quinazolin-4-yl)-1-((Z)-2-fluoro-3-(thiazol-2-yl)acryloyl)piperazin-2-yl)acetonitrile] |
